Values of other authors, collected in US12533416B2, “Krill oil for solubilizing poorly water-soluble dietary supplements and pharmaceutically active agents” (ID CARE UG (haftungsbeschränkt), priority 2018, dated 2026).

Settings: Class 4 = low solubility

SMILES | BCS class (solubility / permeability)
Nc1nc2c(ncn2COCCO)c(=O)[nH]1 [Aciclovir, aciclovir] | BCS Class 4
CC[C@H]1OC(=O)[C@H](C)[C@@H](O[C@H]2C[C@@](C)(OC)[C@@H](O)[C@H](C)O2)[C@H](C)[C@@H](O[C@@H]2O[C@H](C)C[C@H](N(C)C)[C@H]2O)[C@](C)(O)C[C@@H](C)CN(C)[C@H](C)[C@@H](O)[C@]1(C)O [Azithromycin, azithromycin] | BCS Class 4
